Reference: patent publication US20250228239A1, “MOLECULES HAVING PESTICIDAL UTILITY, AND INTERMEDIATES, COMPOSITIONS, AND PROCESSES, RELATED THERETO” (priority 2024, published 2025)
Like-named read-outs stand apart in the source and are kept apart here.

Tests used:
Format in all cases: in vivo
[1] = test system: Yellow Fever Mosquito (Aedes aegypti, AEDSAE); conditions: for YFM rating: Table ABC / ABC-DP rating
How it was run: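 Mortality after 3 days at room temperature is the read-out, scored well by well and converted to a rating. Test molecules came from 4000 ppm stocks in DMSO, further diluted in 90:10 water/acetone, and were exposed to roughly 1-day-old larvae suspended in liver-powder water.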

[2] = test system: Beet Armyworm (Spodoptera exigua, LAPHEG); test: Bioassays on Beet Armyworm (BAW), 128-well diet tray assay; conditions: Spodoptera exigua
How it was run: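 Percent larval mortality, averaged across eight wells, scored after five to seven days at 25° C. under 14:10 light-dark. Each well held one to five second instars feeding on diet dosed at 50 μg/cm^2 with compound from 90:10 acetone-water, solvent dried off.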

[3] = test system: Cabbage Looper (Trichoplusia ni, TRIPNI); test: Bioassays on Cabbage Looper (CL), 128-well diet tray assay; conditions: Trichoplusia ni
How it was run: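 Each of eight wells receives artificial diet treated at 50 μg/cm^2 with the test molecule, then one to five second-instar larvae. Incubation runs five to seven days at 25° C with a 14:10 light-dark cycle under vented covers. Mortality is scored per well as a percentage and averaged.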

[4] = Yellow Fever Mosquito, rating class
[5] = Beet Armyworm, rating class, read-out: BAW
[6] = Cabbage Looper, rating class, read-out: CL
[7] = Beet Armyworm, Table ABC / ABC-DP rating, read-out: BAW rating
[8] = Cabbage Looper, Table ABC / ABC-DP rating, read-out: CL rating
[9] = Table ABC: Biological Results, species YFM
[10] = Table ABC: Biological Results, species BAW, read-out: BAW
[11] = Table ABC: Biological Results, species CL, read-out: CL

SMILES | YFM [1, 4] | pest or weed control at 50 µg/cm2 [2, 5] | pest or weed control at 50 µg/cm2 [3, 6] | YFM [1, 9] | pest or weed control at 50 µg/cm2 [2, 10] | pest or weed control at 50 µg/cm2 [3, 11] | other results
O=C(COC(F)(F)F)Nc1c(F)ccc(NC(=O)c2cc(NC(=O)[C@H]3[C@H](c4ccc(Cl)c(Cl)c4)C3(Cl)Cl)ccc2Cl)c1F [F1766, 2-Chloro-5-((1R,3R)-2,2-dichloro-3-(3,4-dichlorophenyl)cyclopropane-1-carboxamido)-N-(2,4-difluoro-3-(2-(trifluoromethoxy)acetamido)phenyl)benzamide] | A (80–100) | 50 to 100% | 50 to 100% | – | – | – | –
CC(CC(=O)Nc1c(F)ccc(NC(=O)c2cc(NC(=O)[C@H]3[C@H](c4ccc(F)c(C(F)(F)F)c4)C3(Cl)Cl)ccc2Cl)c1F)C(F)(F)F (stereo partly drawn) [F1760, 2-Chloro-5-((1R,3R)-2,2-dichloro-3-(4-fluoro-3-(trifluoromethyl)phenyl)cyclopropane-1-carboxamido)-N-(2,4-difluoro-3-(4,4,4-trifluoro-3-methylbutanamido)phenyl)benzamide] | A (80–100) | 50 to 100% | 50 to 100% | – | – | – | –
O=C(NNc1ccc(F)cc1)c1cc(NC(=O)[C@H]2[C@H](c3cc(Cl)cc(Cl)c3)C2(Cl)Cl)ccc1Cl (relative stereo) [F2553, trans-2,2-Dichloro-N-(4-chloro-3-(2-(4-fluorophenyl)hydrazine-1-carbonyl)phenyl)-3-(3,5-dichlorophenyl)cyclopropane-1-carboxamide] | – | – | – | – | – | – | YFM rating ([1]; Yellow Fever Mosquito): A (80–100); pest or weed control at 50 µg/cm2 [2, 7]: 50 to 100%; pest or weed control at 50 µg/cm2 [3, 8]: 50 to 100%
O=C(Nc1ccc(F)c(NC(=O)C(F)F)c1F)c1cc(NC(=O)[C@H]2[C@H](c3cccc(I)c3)C2(Cl)Cl)ccc1Cl (relative stereo) [F1281, trans-2-chloro-5-(2,2-dichloro-3-(3-iodophenyl)cyclopropane-1-carboxamido)-N-(3-(2,2-difluoroacetamido)-2,4-difluorophenyl)benzamide] | – | – | – | A (80–100) | 50 to 100% | 50 to 100% | –
CCOC(C)(C)C(=O)Nc1c(F)ccc(NC(=O)c2cc(NC(=O)[C@H]3[C@H](c4ccc(F)c(C(F)(F)F)c4)C3(Cl)Cl)ccc2Cl)c1F [F1603, 2-Chloro-5-((1R,3R)-2,2-dichloro-3-(4-fluoro-3-(trifluoromethyl)phenyl)cyclopropane-1-carboxamido)-N-(3-(2-ethoxy-2-methylpropanamido)-2,4-difluorophenyl)benzamide] | A (80–100) | 50 to 100% | 50 to 100% | – | – | – | –
CN(NC(=O)c1cc(NC(=O)[C@H]2[C@H](c3cc(Cl)cc(Cl)c3)C2(Cl)Cl)ccc1Cl)c1ccccc1 (relative stereo) [F2557, trans-2,2-Dichloro-N-(4-chloro-3-(2-methyl-2-phenylhydrazine-1-carbonyl)phenyl)-3-(3,5-dichlorophenyl)cyclopropane-1-carboxamide] | – | – | – | – | – | – | YFM rating ([1]; Yellow Fever Mosquito): A (80–100); pest or weed control at 50 µg/cm2 [2, 7]: 50 to 100%; pest or weed control at 50 µg/cm2 [3, 8]: 50 to 100%
Nc1c(F)ccc(NC(=O)c2cc(NC(=O)[C@H]3[C@H](c4ccc(I)cc4)C3(Cl)Cl)ccc2Cl)c1F (relative stereo) [F1140, trans-N-(3-Amino-2,4-difluorophenyl)-2-chloro-5-(2,2-dichloro-3-(4-iodophenyl)cyclopropane-1-carboxamido)benzamide] | – | – | – | A (80–100) | 50 to 100% | 50 to 100% | –
O=C(Nc1ccc(NC(=O)C(F)(F)F)c(C(F)(F)F)c1)c1cc(NC(=O)[C@H]2[C@H](c3ccc(F)c(Cl)c3)C2(Cl)Cl)ccc1Cl (relative stereo) [F1393, trans-2-Chloro-5-(2,2-dichloro-3-(3-chloro-4-fluorophenyl)cyclopropane-1-carboxamido)-N-(4-(2,2,2-trifluoroacetamido)-3-(trifluoromethyl)phenyl)benzamide] | A (80–100) | 50 to 100% | 50 to 100% | – | – | – | –
O=C(Nc1ccc(F)cc1F)c1cc(NC(=O)[C@H]2[C@H](c3cc(C(F)(F)F)ccc3Cl)C2(Cl)Cl)ccc1Cl (relative stereo) [F1004, trans-2-Chloro-5-(2,2-dichloro-3-(2-chloro-5-(trifluoromethyl)phenyl)cyclopropane-1-carboxamido)-N-(2,4-difluorophenyl)benzamide] | – | – | – | A (80–100) | 50 to 100% | 50 to 100% | –
Cc1cc(NC(=O)[C@H]2[C@H](c3ccc(F)c(Cl)c3)C2(Cl)Cl)cc(C(=O)Nc2ccc(F)cc2)c1Cl (relative stereo) [F1184, trans-2-Chloro-5-(2,2-dichloro-3-(3-chloro-4-fluorophenyl)cyclopropane-1-carboxamido)-N-(4-fluorophenyl)-3-methylbenzamide] | – | – | – | A (80–100) | 50 to 100% | 50 to 100% | –
CN(C)CC(=O)NNC(=O)c1cc(NC(=O)[C@H]2[C@H](c3cc(Cl)cc(Cl)c3)C2(Cl)Cl)ccc1Cl (relative stereo) [F2530, trans-2,2-Dichloro-N-(4-chloro-3-(2-(dimethylglycyl)hydrazine-1-carbonyl)phenyl)-3-(3,5-dichlorophenyl)cyclopropane-1-carboxamide] | – | – | – | – | – | – | YFM rating ([1]; Yellow Fever Mosquito): A (80–100); pest or weed control at 50 µg/cm2 [2, 7]: 50 to 100%; pest or weed control at 50 µg/cm2 [3, 8]: 50 to 100%
CC(=O)Nc1c(F)cc(F)c(NC(=O)c2cc(NC(=O)[C@H]3[C@H](c4cc(Cl)cc(Cl)c4)C3(Cl)Cl)ccc2Cl)c1F [F1628, N-(3-Acetamido-2,4,6-trifluorophenyl)-2-chloro-5-((1R,3R)-2,2-dichloro-3-(3,5-dichlorophenyl)cyclopropane-1-carboxamido)benzamide] | A (80–100) | 50 to 100% | 50 to 100% | – | – | – | –
Nc1ccc(F)c(NC(=O)c2cc(NC(=O)[C@H]3[C@H](c4cc(Cl)cc(Cl)c4)C3(Cl)Cl)ccc2Cl)c1F (relative stereo) [F1026, trans-N-(3-Amino-2,6-difluorophenyl)-2-chloro-5-(2,2-dichloro-3-(3,5-dichlorophenyl)cyclopropane-1-carboxamido)benzamide] | – | – | – | A (80–100) | 50 to 100% | 50 to 100% | –
O=C(Nc1ccc(F)c(NC(=O)C2CC2(F)F)c1F)c1cc(NC(=O)[C@H]2[C@H](c3ccc(F)c(C(F)(F)F)c3)C2(Cl)Cl)ccc1Cl (stereo partly drawn) [F1275, 2-Chloro-5-((1R,3R)-2,2-dichloro-3-(4-fluoro-3-(trifluoromethyl)phenyl)cyclopropane-1-carboxamido)-N-(3-(2,2-difluorocyclopropane-1-carboxamido)-2,4-difluorophenyl)benzamide] | – | – | – | A (80–100) | 50 to 100% | 50 to 100% | –
O=C(Nc1ccc(F)cc1F)c1cc(NC(=O)[C@H]2[C@H](c3cc(C(F)(F)F)cc(Cl)c3F)C2(Cl)Cl)ccc1Cl (relative stereo) [F1050, trans-2-Chloro-5-(2,2-dichloro-3-(3-chloro-2-fluoro-5-(trifluoromethyl)phenyl)cyclopropane-1-carboxamido)-N-(2,4-difluorophenyl)benzamide] | – | – | – | A (80–100) | 50 to 100% | 50 to 100% | –
